Tested on: Normal human adipocytes
Assay: Assessment of lipid synthesis in adipocytes in suspension (anti-cellulitis efficacy test)
Assay type: cell-based
Settings: radioactively labelled acetate (2-C14) into lipids, versus comparative sample
Protocol: Normal human adipocytes are isolated starting from biopsies (plastic surgery). Immediately after receipt, the samples are incubated for 30 min at 37° C. in the presence of collagenase (supplied by Sigma). The suspension of adipocytes is then rinsed and diluted three-fold in the culture medium, The culture medium is formed, for example, from the following: • 1.87 mg/ml of bicarbonate (supplied by Life Technologies), • 25 IU/ml/25 μg/ml of penicillin/streptomycin (supplied by Life Technologies), • 2 mM of glutamine (supplied by Life Technologies), • 100% (vol./vol.) MEM (supplied by Merck Eurolab) and • 0.5% (wt./vol.) bovine albumin (supplied by Sigma).
The adipocytes in suspension are incubated for 4 h at 37° C. in the presence of various concentrations of a compound of the formula I. […]
After incubation for 4 h, the lipids are extracted by the procedure described by Bligh and Dyer, Can. J. Biochem. Physiol., 37, 922 (1959), evaporation is carried out under nitrogen, and the introduced radioactivity is quantified by liquid scintillation (reference liquid scintillation instrument LKB 1210, supplied by Rackbeta).
Any interaction between the radioactively labelled acetate and a compound of the formula I is evaluated in order to confirm the specificity of the labelling by incubating the highest concentration of the compound of the formula I with acetate alone.

C/C=C/C/C=C/CCC(=O)[C@H]1O[C@H]1C(N)=O [Cerulin]
inhibition of the incorporation of acetate: 95%

Reference: patent publication US20100028278A1, “USE OF CHROMAN-4-ONE DERIVATIVES” (Merck Patent Gesellschaft MIT Beschrankter Haftung, priority 2007, published 2010)
